According to PubChem BioAssay AID1959 (Broad Institute, 2009):
Calls of active or inactive are those of the source.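 Rule for the calls: active = growth-inhibition EC50 no more than tenfold above the top tested dose; inconclusive = flat fit between 30% and 70% inhibition, or unreliable fit; inactive = EC50 more than tenfold above the top tested dose.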

test system: E. coli NEB5alpha growth, BacTiter-Glo luminescence, 4 h; assay: antibacterial activity against E. coli NEB5alpha – luminescence, counter-screen for MEX-5/POS-1 RNA-binding inhibitor project, dose response (AID 1959);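 note: pUC19-transformed ampicillin-resistant cells grown in LB with ampicillin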

Structure (SMILES)	EC50
Nc1ncnc(NNC(=O)CNC(=O)c2c(F)cccc2Cl)c1[N+](=O)[O-]	> 11 µM (inactive)
O=C(O)c1ccc(N/N=C/C2=C(N3CCOCC3)C(=C\c3ccccc3)/CC2)cc1	> 11 µM (inactive)
C=CCN1C=C2C(=O)C(C)(OC(=O)CCC(=O)OC)C(=O)C(Br)=C2C=C1c1ccc(OC)cc1 (stereo unspecified)	> 11 µM (inactive)
O=C(CN1CCC(n2nnc3cc(F)ccc32)CC1)NCCc1ccccc1	> 11 µM (inactive)
O=C(O)C1OC(Oc2cc3oc(-c4ccccc4)cc(=O)c3c(O)c2O)C(O)C(O)C1O (stereo unspecified)	> 11 µM (inactive)
CNc1c(N)n(Cc2ccccc2)c(=O)[nH]c1=O	> 11 µM (inactive)
COc1ccc(CCCc2nc3ccccc3[nH]2)cc1	> 11 µM (inactive)
O=C(Cn1cc(C=C2C(=O)NC(=O)NC2=O)c2ccccc21)NCC1CCCO1 (stereo unspecified)	> 11 µM (inactive)
O=C(NCCO)c1ccc2nc(-c3ccco3)c(-c3ccco3)nc2c1	> 11 µM (inactive)
N=C1C(c2nc3ccccc3[nH]2)=C(O)CN1c1ccc(CC(=O)O)cc1	> 11 µM (inactive)
CC(C)CNC(=O)C1Nc2ccc(C(F)(F)F)cc2C2C=CCC12 (stereo unspecified)	> 11 µM (inactive)
Cc1cccc(C)c1NC(=O)CN1C(=O)S/C(=C\c2cccn2-c2cccc(C(=O)O)c2)C1=O	> 11 µM (inactive)
Cc1ccc(/C=C2\Oc3c(ccc(O)c3CN3CCN(C)CC3)C2=O)cc1	> 11 µM (inactive)
O=C(NNC(=O)c1ccccc1O)c1ccco1	> 11 µM (inactive)
COc1ccc2c(c1)C1C=CCC1C(c1cc3c(cc1Br)OCO3)N2 (stereo unspecified)	> 11 µM (inactive)
CN(C)CCCN=Cc1c(O)n(CCc2ccc(F)cc2)c(=O)[nH]c1=O	> 11 µM (inactive)
Cc1cccn2c(=O)c3cc(C(=O)NCCN4CCOCC4)c(=N)n(Cc4cccnc4)c3nc12	> 11 µM (inactive)
O=c1cc(-c2ccccc2Cl)oc2c(NS(=O)(=O)c3cc(Cl)cc(Cl)c3O)ccc(O)c12	> 11 µM (inactive)
COc1cc(C2NC(=S)NC(C)=C2C(=O)OC(C)C)ccc1OC(C)C (stereo unspecified)	> 11 µM (inactive)
CCOC(=O)C1Nc2ccc(C(=O)O)cc2C2C=CCC12 (stereo unspecified)	> 11 µM (inactive)
N=c1c(S(=O)(=O)c2ccc(Br)cc2)cc2c(=O)n3ccccc3nc2n1C1CCCCC1	> 11 µM (inactive)
COc1ccc2nc3ccccc3nc2c1NC(=O)c1ccc(Cl)cc1Cl	> 11 µM (inactive)
Cn1cc(C=C2C(=O)NC(=O)NC2=O)c2ccccc21	> 11 µM (inactive)
NS(=O)(=O)c1ccc(NC(=S)NNC(=O)CCC(=O)Nc2ccccc2Cl)cc1	> 11 µM (inactive)

Structure (SMILES)	EC50
CC(=O)N1CCc2c(sc(NC(=O)C3CCCCC3)c2C(N)=O)C1	> 11 µM (inactive)
NC(=O)[C@@H]1CCCN1Cc1c(C(=O)N2CCc3ccccc3C2)nc2ccc(Cl)cn12	> 11 µM (inactive)
CSCC(C)N1CCC(Oc2cccc(C(=O)NCc3ccccn3)c2)CC1 (stereo unspecified)	> 11 µM (inactive)
COc1ccccc1OCC(=O)N/N=C/c1c(O)ccc2ccccc12	> 11 µM (inactive)
Cc1cc(NC(=O)/C(C#N)=C/c2ccc(-c3ccc(SC(F)F)cc3)o2)n(-c2ccccc2)n1	> 11 µM (inactive)
COc1ccc(CCNC(=O)c2cc3c(=O)n4cccc(C)c4nc3n(CCCN3CCOCC3)c2=N)cc1	> 11 µM (inactive)
CCCCn1c(=O)[nH]c(=O)c2c1nc(-c1ccc(-c3ccccc3Br)o1)n2CCOC	> 11 µM (inactive)
Nc1c(C(=O)Nc2nc3ccccc3s2)sc2nc(-c3cccs3)ccc12	> 11 µM (inactive)
COc1ccc(NC(=O)NS(=O)(=O)c2ccc(C)cc2)cn1	> 11 µM (inactive)
N#CC1=C(N)OC2=C(C(=O)CCC2)[C@]12C(=O)N(CC(N)=O)c1ccccc12	> 11 µM (inactive)
Cc1nc(S/C(=C/c2ccc(-c3cccc(Cl)c3)o2)C(=O)O)n[nH]1	> 11 µM (inactive)
COc1ccccc1CCC(=O)OCc1csc(CC(=O)Nc2ccccc2C)n1	> 11 µM (inactive)
CCCN1C(=O)c2cccc3c(N4CCCCC4)ccc(c23)C1=O	> 11 µM (inactive)
O=c1[nH]c(=O)n(-c2ccc(Cl)cc2)c(O)c1C=NCCN1CCCCC1	> 11 µM (inactive)
Cc1cc(/C=C2\C(=O)NC(=O)N(c3ccc(F)cc3)C2=O)c(C)n1-c1cccc(C(=O)O)c1	> 11 µM (inactive)
Cc1ccc(N=Cc2cc(Br)cc(Cl)c2O)cc1	> 11 µM (inactive)
C/C(=N\NC(=O)c1nnn(-c2nonc2N)c1-c1cccs1)c1cccc(O)c1	> 11 µM (inactive)
CC1CCN(c2nc3ccccc3nc2C(C#N)C(=O)NC2CCCCC2)CC1 (stereo unspecified)	> 11 µM (inactive)
CC(C)(C)OC(=O)NCCCC1=CC2=CC(=O)C(C)(OC(=O)C3CCCC3)C(=O)C2=CO1 (stereo unspecified)	> 11 µM (inactive)
COc1cc2c(cc1OC)C(c1ccc(-c3ccc(Cl)c(Cl)c3)o1)=NCC2	> 11 µM (inactive)
C1=C(c2ccccc2)Nc2nnnn2C1c1cccs1 (stereo unspecified)	> 11 µM (inactive)
O=C(O)c1ccc(-n2cccc2/C=C2/NC(=O)N(c3ccccc3)C2=O)cc1	> 11 µM (inactive)
Cc1cc(C(=O)O)ccc1-n1c(C)ccc1C	> 11 µM (inactive)
N=c1n(CC(=O)c2ccc([N+](=O)[O-])cc2)c2ccccc2n1Cc1ccc(Cl)cc1	> 11 µM (inactive)

Structure (SMILES)	EC50
Cc1ccn2c(=O)nc(SCC(=O)Nc3cc(C)on3)nc2c1	> 11 µM (inactive)
COc1cc(C2C(C#N)=C(N)OC3=C2C(=O)CCC3)cc(OC)c1OC(=O)N1CCOCC1 (stereo unspecified)	> 11 µM (inactive)
O=c1[nH]c(=O)n(-c2ccc(F)cc2)c(O)c1/C=C1\C=Nc2ccccc21	> 11 µM (inactive)
CC(=O)NC1=NC(=O)/C(=C/c2cc(C)n(-c3cccc(C(=O)O)c3)c2C)S1	> 11 µM (inactive)
CC1(OC(=O)c2ccco2)C(=O)C=C2C=C(c3ccc(C#N)cc3)OC=C2C1=O (stereo unspecified)	> 11 µM (inactive)
Cc1cc(/C=C2\C(=O)NC(=O)N(C)C2=O)c(C)n1-c1ccc2c(c1)OCO2	> 11 µM (inactive)
NC(=Nc1ccc(N)cc1)C(N)=Nc1ccc(N)cc1	> 11 µM (inactive)
COc1cc2ccccc2cc1C(=O)NC(=S)Nc1cc(C(=O)O)ccc1C	> 11 µM (inactive)
N=c1c(C(=O)NC2CCCCC2)cc2c(=O)n3ccccc3nc2n1CCc1ccccc1	> 11 µM (inactive)
O=C1CNC(=S)N1CCc1ccc(O)c(O)c1	> 11 µM (inactive)
O=C(CN1C(=O)C2CC=C(Cl)CC2C1=O)NCc1ccccc1 (stereo unspecified)	> 11 µM (inactive)
Cc1ccccc1NS(=O)(=O)c1cc(C(=O)N2CCCC2)ccc1C	> 11 µM (inactive)
O=C(CCN1C(=O)C2CC=C(Cl)CC2C1=O)N1CCCCC1 (stereo unspecified)	> 11 µM (inactive)
Cn1c(O)c(C=Nc2ccc(N3CCOCC3)cc2)c(=O)n(C)c1=S	> 11 µM (inactive)
Oc1ccc(/C=N/Nc2ccc(Cl)nn2)c(O)c1O	> 11 µM (inactive)
Cc1cccc2cc3c(N)c(C(=O)Nc4ccc(N5CCOCC5)cc4)sc3nc12	> 11 µM (inactive)
C=CCNC(=S)N1CCN(c2cccc(C(F)(F)F)c2)CC1	> 11 µM (inactive)
CCCCNC(=O)c1cc2c(=O)n3cccc(C)c3nc2n(Cc2ccncc2)c1=N	> 11 µM (inactive)
O=C(O)c1ccc2c(c1)C1C=CCC1C(c1ccncc1)N2 (stereo unspecified)	> 11 µM (inactive)
Cc1ccc(CS(=O)Cc2ccc(C(=O)N3CCN(c4ccccc4)CC3)o2)cc1 (stereo unspecified)	> 11 µM (inactive)
O=C(C1=C(O)C(=O)N(c2ncccn2)C1c1cccs1)c1ccco1 (stereo unspecified)	> 11 µM (inactive)
N#Cc1c(N)nc(SCc2ccncc2)c(C#N)c1-c1cccs1	> 11 µM (inactive)
Oc1ccc(/C=N/Nc2ncnc3nc[nH]c23)cc1	> 11 µM (inactive)
O=c1c2ccccc2oc2ccc(NCCCn3ccnc3)cc12	> 11 µM (inactive)

Structure (SMILES)	EC50
CN(C)c1ccc(O)c2c1CC1CC3C(N(C)C)C(=O)C(C(N)=O)=C(O)[C@@]3(O)C(=O)C1=C2O (stereo partly specified)	6.49 µM
O=c1[nH][nH]c2cc(=O)n(-c3ccc(Cl)cc3)nc12	> 11 µM (inactive)
Oc1[nH]c2ccccc2c1N=Nc1ccccc1	> 11 µM (inactive)
O=c1[nH]c2c(s1)C=Nc1ccccc1N2	> 11 µM (inactive)
C=CCN1C(=O)/C(=C2/Sc3ccccc3N2CC)SC1=S	> 11 µM (inactive)
Cc1n[nH]c(=S)c2nn(-c3cccc(Cl)c3)c(C)c12	> 11 µM (inactive)
O=C/C(=C\Nc1ccccn1)c1nc2ccccc2o1	> 11 µM (inactive)
CCN(CC)Cc1cc(O)c(CN(CC)CC)cc1O	> 11 µM (inactive)
O=C(N/N=C/c1c(O)n(Cc2ccco2)c(=O)[nH]c1=O)c1ccccc1O	> 11 µM (inactive)
O=C(O)CSc1cc(NS(=O)(=O)c2ccc(Br)cc2)c2ccccc2c1O	> 11 µM (inactive)
CCCn1c(=N)c(C(=O)NCC2CCCO2)cc2c(=O)n3cccc(C)c3nc21 (stereo unspecified)	> 11 µM (inactive)
Cc1cccc(N(C)S(=O)(=O)c2nnc(NC(=O)c3ccco3)s2)c1	> 11 µM (inactive)
Cc1ccc(/C=C2\C(=O)NC(=O)N(CC3CCCO3)C2=O)s1 (stereo unspecified)	> 11 µM (inactive)
N#CC1=C(N)OC2=C(C(=O)CCC2)C1c1cc2c(cc1Br)OCO2 (stereo unspecified)	> 11 µM (inactive)
CCN(CC)c1ccc(C=N/C(C#N)=C(\N)C#N)cc1	> 11 µM (inactive)
COc1[nH]c(/N=C/c2ccccc2)c(C#N)c1C#N	> 11 µM (inactive)
Cc1sc(/C=C2\C(=O)ON=C2c2ccccc2)cc1Br	> 11 µM (inactive)
O=C(C1=NN(c2ccccc2)C2C(=O)N(c3ccccc3Cl)C(=O)C12)c1ccccc1 (stereo unspecified)	> 11 µM (inactive)
C=CCOc1cccc(C2C(C(=O)c3cc4ccccc4o3)=C(O)C(=O)N2c2cc(C)on2)c1 (stereo unspecified)	> 11 µM (inactive)
CCC(=O)Nc1ccc2nc3c(=O)[nH]c(=S)[nH]c3nc2c1	> 11 µM (inactive)
COc1c(O)cc2oc(-c3ccc(O)c(O)c3)cc(=O)c2c1O	> 11 µM (inactive)
O=[N+]([O-])c1ccc(Nc2ccccc2O)c2nonc12	> 11 µM (inactive)
CC1(C)CC(=O)C2=C(C1)Nc1ccccc1S2	> 11 µM (inactive)
O=c1[nH]c2ccc([N+](=O)[O-])cc2nc1/C=C(\O)c1ccccc1	> 11 µM (inactive)
